The record followed here is ChEMBL document CHEMBL3774377 (Bioorg Med Chem, 2016).

Assay [1] deals with T1, Sodium- and chloride-dependent GABA transporter 1 (Mus musculus, UniProt P31648). The assay is described as follows: Displacement of NO 711 from mouse GAT1 expressed in HEK293 cell membranes after 40 mins by LC-ESI-MS-MS-based MS binding assay.
For assay [2], the target named is Sodium- and chloride-dependent GABA transporter 1 (Mus musculus) (UniProt P31648). As to the kind of experiment: Displacement of NO 711 from mouse GAT1 expressed in HEK293 cell membranes assessed as remaining marker bound to protein at 1 mM after 40 mins by LC-ESI-MS-MS-based MS binding assay.
Assay [3] deals with T1, Sodium- and chloride-dependent GABA transporter 1. As to the kind of experiment: Inhibition of mouse GAT1 expressed in HEK293 cells assessed as [3H]GABA uptake preincubated for 25 mins followed by [3H]GABA/unlabeled GABA addition measured after 4 mins by liquid scintillation counting analysis. Type of assay: cell-based.
The target of assay [4] is T2, GABA transporter 4 (Mus musculus) (UniProt P31650).
T2 sequence (whole entry): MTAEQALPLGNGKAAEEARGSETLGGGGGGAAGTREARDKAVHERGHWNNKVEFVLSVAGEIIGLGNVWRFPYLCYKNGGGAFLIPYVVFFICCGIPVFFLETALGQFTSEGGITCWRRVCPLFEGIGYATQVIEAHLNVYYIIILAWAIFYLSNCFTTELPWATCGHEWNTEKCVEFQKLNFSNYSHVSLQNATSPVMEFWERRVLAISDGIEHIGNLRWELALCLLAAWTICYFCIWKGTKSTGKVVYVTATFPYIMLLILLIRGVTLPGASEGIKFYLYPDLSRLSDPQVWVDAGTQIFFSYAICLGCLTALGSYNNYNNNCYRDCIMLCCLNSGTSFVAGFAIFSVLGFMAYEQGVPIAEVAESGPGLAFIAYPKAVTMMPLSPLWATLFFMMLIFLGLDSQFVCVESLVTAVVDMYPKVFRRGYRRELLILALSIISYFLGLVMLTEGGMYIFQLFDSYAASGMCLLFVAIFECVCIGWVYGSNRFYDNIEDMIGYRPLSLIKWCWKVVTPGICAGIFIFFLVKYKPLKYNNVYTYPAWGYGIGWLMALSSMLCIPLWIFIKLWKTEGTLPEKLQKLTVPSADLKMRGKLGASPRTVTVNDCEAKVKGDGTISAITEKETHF
The assay is described as follows: Inhibition of mouse GAT4 expressed in HEK293 cells assessed as remaining [3H]GABA uptake at 1 mM preincubated for 25 mins followed by [3H]GABA/unlabeled GABA addition measured after 4 mins by liquid scintillation counting analysis. Type of assay: cell-based.

The test system of assay [5] is Sodium- and chloride-dependent GABA transporter 2 (Mus musculus). As to the kind of experiment: Inhibition of mouse GAT3 expressed in HEK293 cells assessed as remaining [3H]GABA uptake at 100 uM preincubated for 25 mins followed by [3H]GABA/unlabeled GABA addition measured after 4 mins by liquid scintillation counting analysis.
Assay [6] concerns Sodium- and chloride-dependent betaine transporter (Mus musculus). As to the kind of experiment: Inhibition of mouse GAT2 expressed in HEK293 cells assessed as remaining [3H]GABA uptake at 100 uM preincubated for 25 mins followed by [3H]GABA/unlabeled GABA addition measured after 10 mins by liquid scintillation counting analysis.
For assay [7], the target named is T2, GABA transporter 4 (Mus musculus). The assay is described as follows: Inhibition of mouse GAT4 expressed in HEK293 cells assessed as remaining [3H]GABA uptake at 100 uM preincubated for 25 mins followed by [3H]GABA/unlabeled GABA addition measured after 4 mins by liquid scintillation counting analysis. In kind it is cell-based.
For assay [8], the target named is Sodium- and chloride-dependent GABA transporter 1 (Mus musculus) (UniProt P31648). As to the kind of experiment: Displacement of NO 711 from mouse GAT1 expressed in HEK293 cell membranes assessed as remaining marker bound to protein at 100 uM after 40 mins by LC-ESI-MS-MS-based MS binding assay.
The next assay has as its target T3, GABA transporter 4 (Mus musculus, UniProt P31650).
T3 sequence (P31650 whole entry): T2 sequence (whole entry)
As to the kind of experiment: Inhibition of mouse GAT4 expressed in HEK293 cells assessed as [3H]GABA uptake preincubated for 25 mins followed by [3H]GABA/unlabeled GABA addition measured after 4 mins by liquid scintillation counting analysis. In kind it is cell-based.

Assay [9] relates to Sodium- and chloride-dependent GABA transporter 2 (Mus musculus). As to the kind of experiment: Inhibition of mouse GAT3 expressed in HEK293 cells assessed as remaining [3H]GABA uptake at 1 mM preincubated for 25 mins followed by [3H]GABA/unlabeled GABA addition measured after 4 mins by liquid scintillation counting analysis.
The target in assay [10] is Sodium- and chloride-dependent GABA transporter 1 (Mus musculus) (UniProt P31648). As to the kind of experiment: Inhibition of mouse GAT1 expressed in HEK293 cells assessed as remaining [3H]GABA uptake at 1 mM preincubated for 25 mins followed by [3H]GABA/unlabeled GABA addition measured after 4 mins by liquid scintillation counting analysis. In kind it is cell-based.

Assay [11] has the same target. The assay is described as follows: Inhibition of mouse GAT1 expressed in HEK293 cells assessed as remaining [3H]GABA uptake at 100 uM preincubated for 25 mins followed by [3H]GABA/unlabeled GABA addition measured after 4 mins by liquid scintillation counting analysis. In kind it is cell-based.

As to `O=C(O)C1CCCN(CCC=C(c2ccccc2)c2ccccc2)C1` (configuration not stated), in [1], the affinity, expressed as Ki, was 0.186 µM.
Turning to `C#CCCC[C@H]1CCNC[C@@H]1C(=O)O` (racemic), the results for the Activity in assay [2] and in [4] were 87.2% and 84.9%, respectively. In addition, the IC50 (usually the concentration that inhibits the measured activity by half) in assay [3] was 1150 µM.
For the compound `O=C(O)[C@H]1CNCC[C@@H]1CCC/C=C/c1ccccc1Cc1ccccc1` (racemic), the IC50 in assay [3] was 107 µM. Moreover, in assay [1], the affinity corresponds to a Ki of 77.1 µM.
In the case of `O=C(O)[C@H]1CNCC[C@@H]1CC/C=C/c1ccccc1-c1ccccc1` (racemic), the Activity in assay [5] turned out to be 53.5%; in assay [6] it was 88.7%; in [7], 84.7%. The IC50 in [3] is 60.5 µM. For the same compound, the Ki (in general, the dissociation constant of the complex between target and ligand, obtained from inhibition or displacement) in assay [1] is 33.2 µM.
Consider `CN1CC[C@H](CCC/C=C/c2ccccc2Cc2ccccc2)[C@@H](C(=O)O)C1` (racemic), for which, in assay [7], the Activity was determined as 45.7%. In assay [3], the IC50 is 24.7 µM. For the same compound, affinity in assay [1] was put at a Ki of 39.9 µM.
In the case of `CN1CC[C@H](CCCC#Cc2ccccc2-c2ccccc2)[C@@H](C(=O)O)C1` (racemic), the Activity in assay [8] was 64.4%; in assay [5], 56.4%; in assay [6], 51.9%; in [7] it was 69.4%. Besides, in [3], the IC50 was 37.4 µM.
`CN1CC[C@H](CC/C=C/c2ccccc2Cc2ccccc2)[C@@H](C(=O)O)C1` (racemic): the IC50 in assay [3] was 36.7 µM. Further, the Ki in assay [1] was 39.8 µM.
In the case of `O=C(O)[C@H]1CNCC[C@H]1CCCC/C=C/c1ccccc1Cc1ccccc1` (racemic), the Ki in assay [1] is 35.4 µM.
`CN1CC[C@H](CCCC#Cc2ccccc2Cc2ccccc2)[C@@H](C(=O)O)C1` (racemic): the Activity in assay [7] is 50%. The IC50 in assay [3] is 25.9 µM. Besides, the affinity in [1], expressed as Ki, was 28.6 µM.
Consider `O=C(O)[C@H]1CNCC[C@H]1CCCC#Cc1ccccc1Cc1ccccc1` (racemic), for which, in assay [6], the Activity worked out at 51.1%. In addition, the IC50 is 40.8 µM in assay [3] and 62.5 µM on GABA transporter 4. In assay [1], this compound gave a Ki of 31 µM.
`O=C(O)[C@H]1CNCC[C@@H]1CCCC/C=C/c1ccccc1-c1ccccc1` (racemic): the Activity in assay [6] turned out to be 63.7%. In addition, the IC50 in assay [3] was 75.5 µM; on GABA transporter 4, 83.6 µM. In assay [1], the Ki was 71.8 µM.
Take `CN1CC[C@H](CCC/C=C/c2ccccc2-c2ccccc2)[C@@H](C(=O)O)C1` (racemic): the values for the Activity in [5], in assay [6] and in assay [7] were 53.8%, 90.8% and 57.9%, respectively. Also, the 50% inhibitory concentration (IC50) in assay [3] is 34.8 µM. The same compound showed a Ki in assay [1] of 72.4 µM.
For `C=CCCCC[C@H]1CCNC[C@@H]1C(=O)O` (racemic), the IC50 in assay [3] is 740 µM. Further, the Activity in assay [4] came to 89.9%. The same compound showed an inhibition constant (Ki) in assay [1] of 818 µM.
Consider `O=C(O)[C@H]1CNCC[C@H]1CCC/C=C/c1ccccc1Cc1ccccc1` (racemic), for which the IC50 in assay [3] was 64.1 µM. Further, the Ki in assay [1] was 68.1 µM.
As for `O=C(O)[C@H]1CNCC[C@H]1CCC/C=C/c1ccccc1-c1ccccc1` (racemic), the Activity in assay [8] worked out at 45.9%; in assay [5] it was 54.5%; in [6], 64.8%; in assay [7] it was 52.5%. In addition, the IC50 in assay [3] was 66.8 µM.
Turning to `CN1CC[C@H](CC/C=C/c2ccccc2-c2ccccc2)[C@@H](C(=O)O)C1` (racemic), the Activity worked out at 67.9% in [5], 108% in assay [6] and 75.5% in assay [7]. The half-maximal inhibitory concentration (IC50) in [3] is 26.5 µM. Besides, in [1], the Ki is 14.3 µM.
Take `O=C(O)[C@H]1CNCC[C@H]1CCCC/C=C/c1ccccc1-c1ccccc1` (racemic): the IC50 in assay [3] is 24.5 µM; on GABA transporter 4, 36.7 µM. In addition, the Ki in [1] is 27.4 µM.
For the compound `C#CCC[C@H]1CCNC[C@@H]1C(=O)O` (racemic), the Activity in [2] was found to be 88.9%; in assay [4] it was 90.4%.
`C=CCC[C@H]1CCNC[C@@H]1C(=O)O` (racemic): the Activity in [2] turned out to be 79.9%; in assay [6] it was 81.2%; in [9], 73.1%; in [10], 63.6%; in assay [4], 86.1%.
In the case of `CCCC[C@H]1CCNC[C@@H]1C(=O)O` (racemic), the figures for the Activity in [2], in assay [10] and in assay [4] were 91.7%, 69.9% and 87.5%, respectively.
`CN1CC[C@H](CCC#Cc2ccccc2-c2ccccc2)[C@@H](C(=O)O)C1` (racemic): the Activity in assay [8] was 86.5%; in [5] it was 81.9%; in assay [6] it was 68.4%; in [11], 79.8%; in [7], 81.1%.
The like results for `CN1CC[C@H](CCC#Cc2ccccc2Cc2ccccc2)[C@@H](C(=O)O)C1` (racemic) were, in that order, 73.9%, 71%, 57.5%, 60.9% and 84.4%.
Take `O=C(O)[C@H]1CNCC[C@@H]1CC/C=C/c1ccccc1Cc1ccccc1` (racemic): the Activity in [8] worked out at 79%; in assay [5], 78.1%; in assay [6] it was 85.1%; in assay [11] it was 86.3%; in assay [7], 92.4%.
On to `O=C(O)[C@H]1CNCC[C@@H]1CCC/C=C/c1ccccc1-c1ccccc1` (racemic), for which the Activity in assay [8] amounted to 86.6%; in assay [5], 75.7%; in assay [6], 98.3%; in assay [11] it was 73.9%; in assay [7] it was 76.1%.
Turning to `O=C(O)[C@H]1CNCC[C@@H]1CCCC/C=C/c1ccccc1Cc1ccccc1` (racemic), the Activity in [8] came out at 78.5%; in assay [11] it was 60.5%.
Turning to `O=C(O)[C@H]1CNCC[C@H]1CC/C=C/c1ccccc1-c1ccccc1` (racemic), the Activity in assay [8] came to 76.2%; in assay [5], 55.3%; in [6], 81.2%; in [11] it was 68.6%; in assay [7], 63.5%.
With `O=C(O)[C@H]1CNCC[C@H]1CC/C=C/c1ccccc1Cc1ccccc1` (racemic), the Activity in assay [8] came out at 79.6%; in assay [6] it was 62.5%; in assay [11], 43.9%; in assay [7] it was 49.7%.
For the compound `O=C(O)[C@H]1CNCC[C@H]1CCC#Cc1ccccc1-c1ccccc1` (racemic), the Activity in assay [8] came out at 83.9%; in assay [5] it was 58.2%; in assay [6] it was 52%; in [11], 60.4%; in assay [7], 86.9%.
On to `O=C(O)[C@H]1CNCC[C@H]1CCC#Cc1ccccc1Cc1ccccc1` (racemic), for which the Activity in assay [8] came out at 82.7%; in assay [5], 53.9%; in assay [6] it was 68.4%; in assay [11], 70.1%; in assay [7], 63.9%.
Turning to `O=C(O)[C@H]1CNCC[C@H]1CCCC#Cc1ccccc1-c1ccccc1` (racemic), the Activity in assay [8] was 83.1%; in assay [5], 72.9%; in assay [6], 67.7%; in [11], 80%; in assay [7] it was 77.8%.
